Laboratory results as given in ChEMBL document CHEMBL4507267 (2021).

Legend:
[1] = target: Atypical kinase COQ8B, mitochondrial (Homo sapiens) (UniProt Q96D53); conditions: Compound concentration 1000.0 nM
[2] = target: Ankyrin repeat and protein kinase domain-containing protein 1 (Homo sapiens) (UniProt Q8NFD2); conditions: Compound concentration 1000.0 nM
[3] = target: Serine/threonine-protein kinase BRSK2 (Homo sapiens) (UniProt Q8IWQ3); conditions: Compound concentration 1000.0 nM
[4] = target: Cyclin-dependent kinase 11B (Homo sapiens) (UniProt P21127); conditions: Compound concentration 1000.0 nM
[5] = target: Cyclin-dependent kinase 2 (Homo sapiens) (UniProt P24941); conditions: Compound concentration 1000.0 nM
[6] = target: Cyclin-dependent kinase 5 (Homo sapiens) (UniProt Q00535); conditions: Compound concentration 1000.0 nM
Cyclin-dependent kinase 5 (Homo sapiens), sequence (Q00535 whole entry, looked up, canonical isoform): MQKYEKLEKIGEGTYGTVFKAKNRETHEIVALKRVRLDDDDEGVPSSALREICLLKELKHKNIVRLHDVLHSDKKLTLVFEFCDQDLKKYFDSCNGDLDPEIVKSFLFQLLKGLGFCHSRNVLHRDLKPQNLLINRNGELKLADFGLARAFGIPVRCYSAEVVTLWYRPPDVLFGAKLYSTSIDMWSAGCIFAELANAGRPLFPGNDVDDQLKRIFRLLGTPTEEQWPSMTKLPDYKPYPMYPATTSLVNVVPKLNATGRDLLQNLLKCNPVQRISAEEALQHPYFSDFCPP

[7] = target: Casein kinase I isoform gamma-3 (Homo sapiens) (UniProt Q9Y6M4); conditions: Compound concentration 1000.0 nM
[8] = target: Casein kinase II subunit alpha' (Homo sapiens) (UniProt P19784); conditions: Compound concentration 1000.0 nM
[9] = target: Epithelial discoidin domain-containing receptor 1 (Homo sapiens) (UniProt Q08345); conditions: Compound concentration 1000.0 nM
[10] = target: Mitogen-activated protein kinase 4 (Homo sapiens) (UniProt P31152); conditions: Compound concentration 1000.0 nM
[11] = target: Focal adhesion kinase 1 (Homo sapiens) (UniProt Q05397); conditions: Compound concentration 1000.0 nM
[12] = target: Tyrosine-protein kinase Fyn (Homo sapiens) (UniProt P06241); conditions: Compound concentration 1000.0 nM
[13] = target: Inhibitor of nuclear factor kappa-B kinase subunit epsilon (Homo sapiens) (UniProt Q14164); conditions: Compound concentration 1000.0 nM
[14] = target: Interleukin-1 receptor-associated kinase 3 (Homo sapiens) (UniProt Q9Y616); conditions: Compound concentration 1000.0 nM
[15] = target: Tyrosine-protein kinase JAK1 (Homo sapiens) (UniProt P23458); conditions: Compound concentration 1000.0 nM
[16] = target: Serine/threonine-protein kinase LATS2 (Homo sapiens) (UniProt Q9NRM7); conditions: Compound concentration 1000.0 nM
[17] = target: Mitogen-activated protein kinase kinase kinase kinase 5 (Homo sapiens) (UniProt Q9Y4K4); conditions: Compound concentration 1000.0 nM
[18] = target: Serine/threonine-protein kinase MARK2 (Homo sapiens) (UniProt Q7KZI7); conditions: Compound concentration 1000.0 nM
[19] = target: Mitogen-activated protein kinase kinase kinase 10 (Homo sapiens) (UniProt Q02779); conditions: Compound concentration 1000.0 nM
[20] = target: Serine/threonine-protein kinase 4 (Homo sapiens) (UniProt Q13043); conditions: Compound concentration 1000.0 nM
[21] = target: Serine/threonine-protein kinase 26 (Homo sapiens) (UniProt Q9P289); conditions: Compound concentration 1000.0 nM
[22] = target: Serine/threonine-protein kinase Nek3 (Homo sapiens) (UniProt P51956); conditions: Compound concentration 1000.0 nM
[23] = target: Serine/threonine-protein kinase PAK 2 (Homo sapiens) (UniProt Q13177); conditions: Compound concentration 1000.0 nM
[24] = target: Cyclin-dependent kinase 17 (Homo sapiens) (UniProt Q00537); conditions: Compound concentration 1000.0 nM
Cyclin-dependent kinase 17 (Homo sapiens), sequence (Q00537 whole entry, looked up): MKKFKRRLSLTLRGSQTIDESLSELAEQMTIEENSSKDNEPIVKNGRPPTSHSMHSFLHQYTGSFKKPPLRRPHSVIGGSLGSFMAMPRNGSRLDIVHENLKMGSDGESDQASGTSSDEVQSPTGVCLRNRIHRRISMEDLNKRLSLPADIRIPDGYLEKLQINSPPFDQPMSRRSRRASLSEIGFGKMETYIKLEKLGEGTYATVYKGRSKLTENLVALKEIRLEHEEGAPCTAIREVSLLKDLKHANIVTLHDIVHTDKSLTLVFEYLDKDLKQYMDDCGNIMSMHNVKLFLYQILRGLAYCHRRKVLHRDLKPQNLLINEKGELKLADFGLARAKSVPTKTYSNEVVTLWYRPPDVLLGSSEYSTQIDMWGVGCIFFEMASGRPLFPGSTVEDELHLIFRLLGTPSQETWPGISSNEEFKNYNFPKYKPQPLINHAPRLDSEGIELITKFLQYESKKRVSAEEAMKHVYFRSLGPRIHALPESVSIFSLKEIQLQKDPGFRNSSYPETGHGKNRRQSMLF

[25] = target: Calcium-dependent protein kinase 1 (Plasmodium falciparum) (UniProt P62344); conditions: Compound concentration 1000.0 nM
Calcium-dependent protein kinase 1 (Plasmodium falciparum), sequence (P62344 2-524 limits assumed): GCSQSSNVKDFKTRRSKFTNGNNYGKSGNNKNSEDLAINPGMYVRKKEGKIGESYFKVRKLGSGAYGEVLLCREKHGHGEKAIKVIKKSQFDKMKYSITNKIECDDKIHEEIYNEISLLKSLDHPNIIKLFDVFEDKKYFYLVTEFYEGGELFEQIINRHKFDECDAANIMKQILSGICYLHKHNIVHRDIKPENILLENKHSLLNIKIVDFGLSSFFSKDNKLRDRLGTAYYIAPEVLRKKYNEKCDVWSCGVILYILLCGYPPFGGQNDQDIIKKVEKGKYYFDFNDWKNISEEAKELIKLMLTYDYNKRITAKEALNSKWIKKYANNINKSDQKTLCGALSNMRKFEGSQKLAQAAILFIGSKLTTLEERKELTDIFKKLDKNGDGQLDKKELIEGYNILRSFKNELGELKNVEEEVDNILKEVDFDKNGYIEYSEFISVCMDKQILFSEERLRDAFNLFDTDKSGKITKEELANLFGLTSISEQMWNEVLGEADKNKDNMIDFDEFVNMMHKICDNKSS

[26] = target: 1-phosphatidylinositol 3-phosphate 5-kinase (Homo sapiens) (UniProt Q9Y2I7); conditions: Compound concentration 1000.0 nM
1-phosphatidylinositol 3-phosphate 5-kinase (Homo sapiens), sequence (Q9Y2I7 whole entry): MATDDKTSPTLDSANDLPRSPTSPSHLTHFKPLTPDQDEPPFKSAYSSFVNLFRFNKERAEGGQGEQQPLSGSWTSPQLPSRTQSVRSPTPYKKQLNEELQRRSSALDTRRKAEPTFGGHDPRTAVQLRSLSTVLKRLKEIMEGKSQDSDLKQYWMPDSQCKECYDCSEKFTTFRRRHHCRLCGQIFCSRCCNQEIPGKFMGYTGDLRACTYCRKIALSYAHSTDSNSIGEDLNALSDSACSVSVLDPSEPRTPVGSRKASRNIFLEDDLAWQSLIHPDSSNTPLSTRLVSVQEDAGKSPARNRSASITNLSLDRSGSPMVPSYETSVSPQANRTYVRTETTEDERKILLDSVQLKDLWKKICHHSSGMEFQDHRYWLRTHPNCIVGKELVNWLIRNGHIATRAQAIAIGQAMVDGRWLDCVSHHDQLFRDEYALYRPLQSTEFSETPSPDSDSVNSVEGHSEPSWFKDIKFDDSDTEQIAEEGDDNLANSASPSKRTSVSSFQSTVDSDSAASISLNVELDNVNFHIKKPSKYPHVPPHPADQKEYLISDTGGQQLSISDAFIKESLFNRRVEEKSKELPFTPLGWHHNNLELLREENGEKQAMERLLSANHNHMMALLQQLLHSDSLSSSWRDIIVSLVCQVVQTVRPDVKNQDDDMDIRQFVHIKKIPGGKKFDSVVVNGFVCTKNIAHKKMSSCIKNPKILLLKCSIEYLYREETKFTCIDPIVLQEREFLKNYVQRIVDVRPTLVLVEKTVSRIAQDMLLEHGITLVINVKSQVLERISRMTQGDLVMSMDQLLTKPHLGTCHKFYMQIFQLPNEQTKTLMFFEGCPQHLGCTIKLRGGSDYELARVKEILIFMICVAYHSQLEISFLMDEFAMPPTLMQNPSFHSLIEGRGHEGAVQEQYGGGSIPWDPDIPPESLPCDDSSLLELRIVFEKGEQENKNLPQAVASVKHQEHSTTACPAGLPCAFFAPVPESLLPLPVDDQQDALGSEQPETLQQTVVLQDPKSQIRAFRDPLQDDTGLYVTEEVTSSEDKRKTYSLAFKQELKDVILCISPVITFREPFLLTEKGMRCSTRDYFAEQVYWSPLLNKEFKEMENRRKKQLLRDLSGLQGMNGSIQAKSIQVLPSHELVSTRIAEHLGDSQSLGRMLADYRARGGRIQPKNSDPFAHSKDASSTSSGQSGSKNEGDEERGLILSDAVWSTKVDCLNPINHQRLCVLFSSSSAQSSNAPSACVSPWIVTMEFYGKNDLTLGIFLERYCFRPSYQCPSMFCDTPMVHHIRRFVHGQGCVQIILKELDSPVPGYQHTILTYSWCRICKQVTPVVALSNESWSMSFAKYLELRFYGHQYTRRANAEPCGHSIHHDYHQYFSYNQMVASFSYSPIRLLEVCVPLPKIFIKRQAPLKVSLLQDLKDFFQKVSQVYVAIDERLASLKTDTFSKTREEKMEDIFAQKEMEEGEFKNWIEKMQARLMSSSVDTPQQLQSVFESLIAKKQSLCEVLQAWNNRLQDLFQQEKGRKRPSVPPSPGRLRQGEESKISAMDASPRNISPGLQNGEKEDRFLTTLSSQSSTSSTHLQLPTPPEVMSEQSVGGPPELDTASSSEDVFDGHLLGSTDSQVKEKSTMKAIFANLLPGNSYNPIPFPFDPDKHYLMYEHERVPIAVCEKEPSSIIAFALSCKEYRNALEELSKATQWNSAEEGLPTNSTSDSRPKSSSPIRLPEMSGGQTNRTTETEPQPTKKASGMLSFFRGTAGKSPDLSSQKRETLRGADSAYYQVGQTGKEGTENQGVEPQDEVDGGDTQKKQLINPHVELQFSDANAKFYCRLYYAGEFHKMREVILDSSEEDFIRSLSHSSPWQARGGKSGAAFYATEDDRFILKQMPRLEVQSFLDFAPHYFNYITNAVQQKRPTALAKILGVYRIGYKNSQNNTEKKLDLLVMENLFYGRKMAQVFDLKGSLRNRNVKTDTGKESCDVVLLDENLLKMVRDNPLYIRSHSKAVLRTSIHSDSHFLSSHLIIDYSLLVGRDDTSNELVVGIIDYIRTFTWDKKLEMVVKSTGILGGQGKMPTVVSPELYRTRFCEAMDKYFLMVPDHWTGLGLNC

[27] = target: Serine/threonine-protein kinase PLK3 (Homo sapiens) (UniProt Q9H4B4); conditions: Compound concentration 1000.0 nM
[28] = target: Protein kinase C epsilon type (Homo sapiens) (UniProt Q02156); conditions: Compound concentration 1000.0 nM
[29] = target: Protein-tyrosine kinase 2-beta (Homo sapiens) (UniProt Q14289); conditions: Compound concentration 1000.0 nM
[30] = tested on: Proto-oncogene tyrosine-protein kinase receptor Ret (Homo sapiens), P07949 [V804L]; conditions: Compound concentration 1000.0 nM
[31] = target: Receptor-interacting serine/threonine-protein kinase 1 (Homo sapiens) (UniProt Q13546); conditions: Compound concentration 1000.0 nM
[32] = target: Receptor-interacting serine/threonine-protein kinase 4 (Homo sapiens) (UniProt P57078); conditions: Compound concentration 1000.0 nM
Receptor-interacting serine/threonine-protein kinase 4 (Homo sapiens), sequence (P57078 whole entry): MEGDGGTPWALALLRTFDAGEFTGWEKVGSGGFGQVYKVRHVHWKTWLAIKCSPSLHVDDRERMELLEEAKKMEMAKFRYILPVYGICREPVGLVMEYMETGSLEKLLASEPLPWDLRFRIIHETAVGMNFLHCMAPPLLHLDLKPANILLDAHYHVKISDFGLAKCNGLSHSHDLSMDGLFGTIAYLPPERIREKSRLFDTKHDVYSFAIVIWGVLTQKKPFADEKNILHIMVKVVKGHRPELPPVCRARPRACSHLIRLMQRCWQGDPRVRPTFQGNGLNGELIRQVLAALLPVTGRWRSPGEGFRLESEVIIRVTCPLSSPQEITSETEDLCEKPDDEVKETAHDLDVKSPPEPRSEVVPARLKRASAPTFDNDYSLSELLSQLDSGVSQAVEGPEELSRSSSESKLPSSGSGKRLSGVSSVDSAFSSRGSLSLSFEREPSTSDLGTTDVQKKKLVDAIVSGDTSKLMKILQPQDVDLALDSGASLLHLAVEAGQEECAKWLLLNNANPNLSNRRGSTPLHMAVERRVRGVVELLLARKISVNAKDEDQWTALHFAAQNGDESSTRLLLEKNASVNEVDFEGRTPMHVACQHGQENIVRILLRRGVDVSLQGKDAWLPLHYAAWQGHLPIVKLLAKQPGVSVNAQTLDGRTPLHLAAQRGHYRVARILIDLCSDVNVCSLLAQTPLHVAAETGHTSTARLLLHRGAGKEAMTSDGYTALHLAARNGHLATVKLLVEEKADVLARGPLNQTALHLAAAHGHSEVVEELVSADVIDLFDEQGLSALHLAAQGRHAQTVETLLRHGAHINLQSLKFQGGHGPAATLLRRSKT

[33] = target: Serine/threonine-protein kinase SIK2 (Homo sapiens) (UniProt Q9H0K1); conditions: Compound concentration 1000.0 nM
[34] = target: TGF-beta receptor type-2 (Homo sapiens) (UniProt P37173); conditions: Compound concentration 1000.0 nM
[35] = target: Tyrosine-protein kinase TXK (Homo sapiens) (UniProt P42681); conditions: Compound concentration 1000.0 nM
[36] = target: Non-receptor tyrosine-protein kinase TYK2 (Homo sapiens) (UniProt P29597); conditions: Compound concentration 1000.0 nM
[37] = target: Serine/threonine-protein kinase ULK3 (Homo sapiens) (UniProt Q6PHR2); conditions: Compound concentration 1000.0 nM
[38] = target: Serine/threonine-protein kinase WNK2 (Homo sapiens) (UniProt Q9Y3S1); conditions: Compound concentration 1000.0 nM
[39] = target: Serine/threonine-protein kinase 25 (Homo sapiens) (UniProt O00506); conditions: Compound concentration 1000.0 nM
[40] = target: Tyrosine-protein kinase ZAP-70 (Homo sapiens) (UniProt P43403); conditions: Compound concentration 1000.0 nM
[41] = target: 5-hydroxytryptamine receptor 2C (Homo sapiens) (UniProt P28335); conditions: Compound concentration 10.0 uM
[42] = target: Sodium-dependent serotonin transporter (Homo sapiens) (UniProt P31645); conditions: Compound concentration 10.0 uM
[43] = target: GABA-A receptor; anion channel (Rattus norvegicus) (UniProt O09028+P15431+P18506+P18508+P19969+P20236+P23574+P23576+P28471+P28473+P30191+P62813+P63079+P63138+Q91ZM7+Q9ES14); conditions: Compound concentration 10.0 uM
[44] = target: Muscarinic acetylcholine receptor M2 (Homo sapiens) (UniProt P08172); conditions: Compound concentration 10.0 uM
Muscarinic acetylcholine receptor M2 (Homo sapiens), sequence (P08172 whole entry): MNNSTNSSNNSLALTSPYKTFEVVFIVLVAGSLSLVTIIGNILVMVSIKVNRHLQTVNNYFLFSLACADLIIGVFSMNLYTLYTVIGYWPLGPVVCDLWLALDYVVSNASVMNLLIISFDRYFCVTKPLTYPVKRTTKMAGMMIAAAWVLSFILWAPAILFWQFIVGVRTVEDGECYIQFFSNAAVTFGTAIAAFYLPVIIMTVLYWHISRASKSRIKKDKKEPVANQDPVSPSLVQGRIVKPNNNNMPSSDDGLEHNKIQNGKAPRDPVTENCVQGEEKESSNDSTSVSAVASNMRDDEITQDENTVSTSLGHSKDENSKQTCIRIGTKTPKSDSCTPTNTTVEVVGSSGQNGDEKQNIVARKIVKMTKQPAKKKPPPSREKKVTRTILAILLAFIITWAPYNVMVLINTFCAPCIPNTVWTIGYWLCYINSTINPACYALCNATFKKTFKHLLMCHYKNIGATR

Compound: Cc1c(NC(=O)c2cc(C(N)=O)nc3cc(F)ccc23)c(C(F)(F)F)nn1Cc1ccc(C#N)cc1 [BAY-876]
- residual activity [1]: 80%
- residual activity [2]: 80%
- residual activity [3]: 100%
- residual activity [4]: 94%
- residual activity [5]: 91%
- residual activity [6]: 100%
- residual activity [7]: 100%
- residual activity [8]: 100%
- residual activity [9]: 1.5%
- residual activity [10]: 76%
- residual activity [11]: 96%
- residual activity [12]: 94%
- residual activity [13]: 75%
- residual activity [14]: 94%
- residual activity [15]: 86%
- residual activity [16]: 72%
- residual activity [17]: 74%
- residual activity [18]: 97%
- residual activity [19]: 92%
- residual activity [20]: 84%
- residual activity [21]: 95%
- residual activity [22]: 74%
- residual activity [23]: 88%
- residual activity [24]: 92%
- residual activity [25]: 92%
- residual activity [26]: 92%
- residual activity [27]: 84%
- residual activity [28]: 74%
- residual activity [29]: 95%
- residual activity [30]: 100%
- residual activity [31]: 100%
- residual activity [32]: 92%
- residual activity [33]: 100%
- residual activity [34]: 100%
- residual activity [35]: 99%
- residual activity [36]: 77%
- residual activity [37]: 74%
- residual activity [38]: 87%
- residual activity [39]: 100%
- residual activity [40]: 84%
- inhibition [41]: 6.9%
- inhibition [42]: 0.483%
- inhibition [43]: 2.64%
- inhibition [44]: 25.8%

Compound: Cc1c(NC(=O)c2cc(C(N)=O)nc3cc(F)ccc23)c(C(F)(F)F)nn1Cc1ccc(C(C)(C)C)cc1 [BAY-588]
- residual activity [1]: 70%
- residual activity [2]: 100%
- residual activity [3]: 100%
- residual activity [4]: 100%
- residual activity [5]: 88%
- residual activity [6]: 76%
- residual activity [7]: 100%
- residual activity [8]: 100%
- residual activity [9]: 95%
- residual activity [10]: 100%
- residual activity [11]: 100%
- residual activity [12]: 100%
- residual activity [13]: 100%
- residual activity [14]: 100%
- residual activity [15]: 100%
- residual activity [16]: 84%
- residual activity [17]: 92%
- residual activity [18]: 100%
- residual activity [19]: 78%
- residual activity [20]: 95%
- residual activity [21]: 100%
- residual activity [22]: 100%
- residual activity [23]: 85%
- residual activity [24]: 100%
- residual activity [25]: 100%
- residual activity [26]: 100%
- residual activity [27]: 94%
- residual activity [28]: 67%
- residual activity [29]: 92%
- residual activity [30]: 83%
- residual activity [31]: 100%
- residual activity [32]: 100%
- residual activity [33]: 100%
- residual activity [34]: 100%
- residual activity [35]: 100%
- residual activity [36]: 100%
- residual activity [37]: 97%
- residual activity [38]: 100%
- residual activity [39]: 100%
- residual activity [40]: 100%
- inhibition [41]: -2.42%
- inhibition [42]: -3.13%
- inhibition [43]: 9.54%
- inhibition [44]: 15.3%
